Here are results for four molecules from ChEMBL document CHEMBL1121420, “Preparation and antitumor activity of olivomycin A analogues” (1980).

Experiment [1] relates to Mus musculus. As to the kind of experiment: Average change in weight is tested in mice at a dose of 1 mg/kg. Type of experiment: functional. On the set-up: unit not given here.
Experiment [2] has as its system Mus musculus. As to the kind of experiment: Average change in weight is tested in mice at a dose of 2 mg/kg. Format: functional. On the set-up: unit not given here.
Experiment [3] relates to Mus musculus. As to the kind of experiment: Average change in weight is tested in mice at a dose of 8 mg/kg; Toxic. Format: functional, organism-based. On the set-up: dose 8 mg/kg.
The subject of experiment [4] is P388. Briefly: Tested on P-388 Leukemia for median survival time treated to median survival time control when administered intraperitoneally at a dose of 1 mg/kg. The note with it: route intraperitoneal. Type of experiment: functional, Mus musculus.
The test system of experiment [5] is P388. As to the kind of experiment: Tested on P-388 Leukemia for median survival time treated to median survival time control when administered intraperitoneally at a dose of 2 mg/kg. Type of experiment: functional, Mus musculus. To be noted: route intraperitoneal.
Experiment [6] has as its system P388. As to the kind of experiment: Tested on P-388 Leukemia for median survival time treated to median survival time control when administered intraperitoneally at a dose of 4 mg/kg. Format: functional, Mus musculus. The note with it: route intraperitoneal.
The subject of experiment [7] is P388. As to the kind of experiment: Tested on P-388 Leukemia for median survival time treated to median survival time control when administered intraperitoneally at a dose of 8 mg/kg; Toxic. Format: functional, organism-based. On the set-up: dose 8 mg/kg. The note with it: Mus musculus.
The subject of experiment [8] is Mus musculus. As to the kind of experiment: Average change in weight is tested in mice at a dose of 4 mg/kg. Type of experiment: functional. On the set-up: unit not given here.
The subject of experiment [9] is Mus musculus. As to the kind of experiment: Average change in weight is tested in mice at a dose of 4 mg/kg; Toxic. Type of experiment: functional, organism-based. On the set-up: dose 4 mg/kg.
Experiment [10] has as its system Mus musculus. As to the kind of experiment: Average change in weight is tested in mice at a dose of 8 mg/kg. Type of experiment: functional. On the set-up: unit not given here.
The subject of experiment [11] is P388. Briefly: Tested on P-388 Leukemia for median survival time treated to median survival time control when administered intraperitoneally at a dose of 0.5 mg/kg. Format: functional, Mus musculus. The note with it: route intraperitoneal.
Experiment [12] deals with P388. As to the kind of experiment: Tested on P-388 Leukemia for median survival time treated to median survival time control when administered intraperitoneally at a dose of 4 mg/kg; Toxic. Format: functional, organism-based. Set-up: dose 4 mg/kg. To be noted: Mus musculus.
Experiment [13] has as its system Mus musculus. As to the kind of experiment: Average change in weight is tested in mice at a dose of 0.25 mg/kg. Type of experiment: functional.
For experiment [14], the system named is Mus musculus. Briefly: Average change in weight is tested in mice at a dose of 0.5 mg/kg. Type of experiment: functional.
Experiment [15] relates to P388. As to the kind of experiment: Tested on P-388 Leukemia for median survival time treated to median survival time control when administered intraperitoneally at a dose of 0.25 mg/kg. Type of experiment: functional, Mus musculus. To be noted: route intraperitoneal.
In experiment [16] the test system is P388. Briefly: Tested on P-388 Leukemia for median survival time treated to median survival time control when administered intraperitoneally at a dose of 8 mg/kg. Format: functional, Mus musculus. To be noted: route intraperitoneal.

For the molecule `C/N=C(\C(O)C(C)O)C(OC)C1Cc2cc3cc(OC4CC(OC(C)=O)C(OC5CC(O)C(OC)C(C)O5)C(C)O4)cc(O)c3c(O)c2C(=O)C1OC1CC(OC2CC(OC3CC(C)(O)C(OC(=O)C(C)C)C(C)O3)C(O)C(C)O2)C(O)C(C)O1` (stereo not drawn), the Activity is 1.1 in the experiment with Mus musculus [1], 0.1 with Mus musculus [2], “Toxic” with Mus musculus [3] and 2.4 with Mus musculus [8]. Also, the T/C (commonly the ratio of treated to control) in the experiment on P388 [4] was 122%; with P388 [5] it was 140%; in the experiment on P388 [6], 155%; in the experiment on P388 [7] it was “Toxic”.
`COC(/C(=N/O)C(O)C(C)O)C1Cc2cc3cc(OC4CC(OC(C)=O)C(OC5CC(O)C(OC)C(C)O5)C(C)O4)cc(O)c3c(O)c2C(=O)C1OC1CC(OC2CC(OC3CC(C)(O)C(OC(=O)C(C)C)C(C)O3)C(O)C(C)O2)C(O)C(C)O1` (stereo not drawn): the Activity was 1.3 in the experiment with Mus musculus [2], “Toxic” in the experiment with Mus musculus [9], 0.8 in the experiment with Mus musculus [10] and 0.8 in the experiment with Mus musculus [8]. Besides, the T/C is 100% in the experiment on P388 [11], 100% in the experiment on P388 [4], 155% in the experiment with P388 [5] and “Toxic” with P388 [12].
Take `CO/N=C(\C(O)C(C)O)C(OC)C1Cc2cc3cc(OC4CC(OC(C)=O)C(OC5CC(O)C(OC)C(C)O5)C(C)O4)cc(O)c3c(O)c2C(=O)C1OC1CC(OC2CC(OC3CC(C)(O)C(OC(=O)C(C)C)C(C)O3)C(O)C(C)O2)C(O)C(C)O1` (stereo not drawn): the Activity turned out to be 1.3 with Mus musculus [13]; 0.8 in the experiment with Mus musculus [14]; 0.9 in the experiment on Mus musculus [1]; 0.3 in the experiment on Mus musculus [2]; 2.8 in the experiment with Mus musculus [10]; 1.3 in the experiment on Mus musculus [8]. Besides, the T/C came to 128% with P388 [15]; 156% with P388 [11]; 144% in the experiment on P388 [4]; 167% with P388 [5]; 156% with P388 [6]; 144% with P388 [16].
Consider `COc1cc(OC2CC(OC(C)=O)C(OC3CC(O)C(OC)C(C)O3)C(C)O2)cc2cc3c(c(O)c12)C(=O)C(OC1CC(OC2CC(OC4CC(C)(O)C(OC(=O)C(C)C)C(C)O4)C(O)C(C)O2)C(O)C(C)O1)C(C(OC)C(=O)C(O)C(C)O)C3` (stereo not drawn), for which the Activity in the experiment with Mus musculus [13] is listed as 1.3; in the experiment on Mus musculus [14], 1.3; in the experiment with Mus musculus [1], 1.3; in the experiment with Mus musculus [2], 0.7; with Mus musculus [8] it was 1.3. Also, the T/C is 106% with P388 [15]; 133% with P388 [11]; 144% in the experiment on P388 [4]; 156% with P388 [5]; 156% in the experiment with P388 [6].
